{"source": "patent US12195427B2", "about": "“MASP-2 inhibitors and methods of use” (priority 2018, dated 2025)", "target": "MASP-2 CCP2-SP (Homo sapiens (Human), UniProt O00187)", "sequence (O00187 445-686)": "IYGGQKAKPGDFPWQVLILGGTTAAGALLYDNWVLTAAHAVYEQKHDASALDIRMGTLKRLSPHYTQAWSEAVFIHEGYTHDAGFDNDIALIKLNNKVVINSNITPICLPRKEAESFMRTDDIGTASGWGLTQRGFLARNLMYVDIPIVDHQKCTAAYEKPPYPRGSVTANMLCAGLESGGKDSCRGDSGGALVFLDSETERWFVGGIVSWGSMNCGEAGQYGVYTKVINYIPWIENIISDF", "sequence (O00187 364-432 partner)": "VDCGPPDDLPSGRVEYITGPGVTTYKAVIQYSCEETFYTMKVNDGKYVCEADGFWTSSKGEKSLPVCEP", "experiment": "MASP-2 co-crystallization, X-ray crystallography and structure analysis (H-bonds, van der Waals contacts);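 as to Ligand-pharmacophore element distance, pharmacophore element C2: distance from averaged pharmacophore element to bound ligand; missing value means element absent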;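 as to Ligand-pharmacophore element distance, pharmacophore element C3: distance from averaged pharmacophore element to bound ligand; missing value means element absent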;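 as to Ligand-pharmacophore element distance, pharmacophore element C4: distance from averaged pharmacophore element to bound ligand; missing value means element absent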;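 as to Ligand-pharmacophore element distance, pharmacophore element C5: distance from averaged pharmacophore element to bound ligand; missing value means element absent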", "set-up": "van der Waals contact distance, MASP-2 HIS 483 atom CD2 / van der Waals contact distance, MASP-2 HIS 483 atom NE2 / van der Waals contact distance, SER 654 C to compound atom / van der Waals contact distance, SER 654 O to compound atom / van der Waals contact distance, TRP 655 C to compound atom / van der Waals contact distance, MASP-2 GLY 528 atom CA / van der Waals contact distance TRP 655 atom CZ3 / van der Waals contact distance TRP 655 atom N / van der Waals contact distance TRP 655 atom CE3 / van der Waals contact distance GLY 656 atom C / van der Waals contact distance GLY 656 atom CA / van der Waals contact distance GLY 656 atom O / van der Waals contact distance, MASP-2 TYR 607 atom CD1 / van der Waals contact distance, MASP-2 PRO 606 atom O / d(C3,CA1) / d(CA1,N1)2 / d(H4,O1) / d(H4,O2) / d(O1,O2) / d(CA1,O2) / d(CA6,O1) / d(CA6,O2) / d(CA1,C5) / d(O2,H3) / d(N2,C2) / d(CA5,N2) / d(N2,C4) / d(N2,C6) / d(N2,CA3) / d(N2,O3) / d(O4,H2): unit not given beside the values", "settings": "for H-bond distance to MASP-2 GLY 656 atom N: GLY 656 N; for H-bond distance to MASP-2 GLY 656 atom O: GLY 656 O; for H-bond distance to MASP-2 SER 657 atom O: SER 657 O; for H-bond distance to MASP-2 SER 628 atom O: SER 628 O", "procedure,_shortened": "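Inhibitor complexes were obtained by soaking crystals of E. coli-expressed human MASP-2 CCP2-SP constructs, then flash-cooling in liquid nitrogen. Structures solved by molecular replacement (1Q3X search model) from synchrotron diffraction; where several poses existed, only one was analyzed, and nonbonded contacts listed can include H-bonds.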", "key": {"[1]": {"settings": "Table A2-9 second part, ARG 630, AA atoms N, NE, NH1"}, "[2]": {"settings": "Table A5-1 pharmacophore: distance between elements, S2/S1 region"}, "[3]": {"settings": "Table A5-2 pharmacophore distance, S3/S4 region"}, "[4]": {"settings": "Table A7-1, between pharmacophore elements of the bound compound"}}, "note": "Counter-ions that a name gives are not always drawn."}
{"smiles": "N=C(N)c1ccc(CNC(=O)C(CF)NC(=O)[C@H](N)CCc2ccccc2)cc1", "note": "(stereo partly drawn) [compound 1050, (2R)-2-Amino-N-(1-((4-carbamimidoylbenzyl)amino)-3-fluoro-1-oxopropan-2-yl)-4-phenylbutanamide Dihydrochloride]", "values": [{"measurement": "H-bond distance to MASP-2 GLY 656 atom N", "setting": "Table A1 (H-Bonds)", "result": 3.18}, {"measurement": "H-bond distance to MASP-2 GLY 656 atom O", "setting": "Table A1 (H-Bonds)", "result": 2.58}, {"measurement": "H-bond distance to MASP-2 SER 654 atom O", "setting": "Table A1 (H-Bonds), SER 654 O", "result": 3.03}, {"measurement": "H-bond distance to MASP-2 SER 657 atom O", "setting": "Table A1 (H-Bonds)", "result": 2.86}, {"measurement": "van der Waals contact distance, MASP-2 PHE 529 atom CD1", "setting": "Table A2-3", "result": 3.61}, {"measurement": "van der Waals contact distance, MASP-2 PHE 529 atom CE1", "setting": "Table A2-3", "result": 3.56}, {"measurement": "van der Waals contact distance, MASP-2 PHE 529 atom CZ", "setting": "Table A2-3", "result": 3.88}, {"measurement": "van der Waals contact distance, MASP-2 amino acid atom to compound atom", "setting": "Table A2-5: TYR 607 (CE1, CE2, OH), PRO 608 (CD, CG), SER 611 (CA)", "result": 3.68}, {"measurement": "van der Waals contact distance, MASP-2 amino acid atom to compound atom", "setting": "Table A2-9, ARG 630, AA atoms CG, CZ", "result": 3.66}, {"measurement": "van der Waals contact distance, MASP-2 amino acid atom to compound atom", "setting": "[1]", "result": 3.66}, {"measurement": "van der Waals contact distance, VAL 653 CG1 to compound atom", "setting": "Table A2-11", "result": 3.74}, {"measurement": "van der Waals contact distance, SER 654 O to compound atom", "setting": "Table A2-12", "result": 3.72}, {"measurement": "van der Waals contact distance TRP 655 atom CZ3", "setting": "Table A2-13, MASP-2 TRP 655 CZ3", "result": 3.81}, {"measurement": "van der Waals contact distance TRP 655 atom N", "setting": "Table A2-13, MASP-2 TRP 655 N", "result": 3.74}, {"measurement": "Ligand-pharmacophore element distance, pharmacophore element C2", "setting": "Table A4-1, element C2", "result": 6.95}, {"measurement": "Ligand-pharmacophore element distance, pharmacophore element C3", "setting": "Table A4-1, element C3", "result": 0}, {"measurement": "Ligand-pharmacophore element distance, pharmacophore element C4", "setting": "Table A4-1, element C4", "result": 0}, {"measurement": "Ligand-pharmacophore element distance, pharmacophore element C5", "setting": "Table A4-1, element C5", "result": 0}, {"measurement": "Ligand-pharmacophore element distance, pharmacophore element C6", "setting": "Table A4-1, element C6", "result": 0}, {"measurement": "Ligand-pharmacophore element distance, pharmacophore element C7", "setting": "Table A4-1, element C7", "result": 0}, {"measurement": "Ligand-pharmacophore element distance, pharmacophore element CA1", "setting": "Table A4-1, element CA1", "result": 0.57}, {"measurement": "Ligand-pharmacophore element distance, pharmacophore element CA2", "setting": "Table A4-1, element CA2", "result": 0.33}, {"measurement": "Ligand-pharmacophore element distance, pharmacophore element CA3", "setting": "Table A4-1, element CA3", "result": 0}, {"measurement": "Ligand-pharmacophore element distance, pharmacophore element CA4", "setting": "Table A4-1, element CA4", "result": 0}, {"measurement": "Ligand-pharmacophore element distance, pharmacophore element CA5", "setting": "Table A4-1, element CA5", "result": 0}, {"measurement": "Ligand-pharmacophore element distance, pharmacophore element CA6", "setting": "Table A4-1, element CA6", "result": 0}, {"measurement": "d(CA1,N1)", "setting": "[2]", "result": 3.47}, {"measurement": "d(CA1,O1)", "setting": "[2]", "result": 4.10}, {"measurement": "d(CA1,O2)", "setting": "[2]", "result": 4.29}, {"measurement": "d(H4,O1)", "setting": "[2]", "result": 4.58}, {"measurement": "d(H4,O2)", "setting": "[2]", "result": 4.38}, {"measurement": "d(O1,O2)", "setting": "[2]", "result": 3.01}, {"measurement": "d(N2,C2)", "setting": "[3]", "result": 6.69}, {"measurement": "d(N2,CA2)", "setting": "[3]", "result": 5.73}, {"measurement": "d(O2,H3)", "setting": "[3]", "result": 2.72}, {"measurement": "d(O2,N2)", "setting": "[3]", "result": 2.76}, {"measurement": "a(CA1, O1, O2)", "setting": "Table A6-1 pharmacophore angle", "result": 114.34}, {"measurement": "a(O1, O2, H4)", "setting": "Table A6-1 pharmacophore angle", "result": 140.76}, {"measurement": "A(N1, CA1, O1) a)", "setting": "Table A6-1 pharmacophore angle, all compounds with protonatable center N1 except Methyl-amino-pyridine", "result": 160.78}, {"measurement": "a(O1, O2, H3)", "setting": "Table A6-2 pharmacophore angle", "result": 137.51}, {"measurement": "a(O1, O2, N2)", "setting": "Table A6-2 pharmacophore angle", "result": 140.97}, {"measurement": "a(O2, N2, C2)", "setting": "Table A6-2 pharmacophore angle", "result": 159.29}, {"measurement": "a(O2, N2, CA2)", "setting": "Table A6-2 pharmacophore angle", "result": 153.66}, {"measurement": "Pharmacophore torsion angle a(H4, O1, O2, H3)", "setting": "[4]", "result": 102.21}, {"measurement": "Pharmacophore torsion angle a(H4, O1, O2, N2)", "setting": "[4]", "result": 123.45}, {"measurement": "Pharmacophore torsion angle a(N1, CA1, O2, H4)", "setting": "[4]", "result": "−131.38"}, {"measurement": "Pharmacophore torsion angle a(O1, H4, O2, CA1)", "setting": "[4]", "result": "−58.32"}, {"measurement": "Pharmacophore torsion angle a(O1, O2, N2, C2)", "setting": "[4]", "result": 66.94}, {"measurement": "Pharmacophore torsion angle a(O1, O2, N2, CA2)", "setting": "Table A7-2, between pharmacophore elements of the bound compound", "result": 147.29}]}
{"smiles": "C[C@H](NC(=O)[C@H](N)CCCc1ccccc1)C(=O)NCc1ccc(C(=N)N)cc1", "note": "[compound 1042]", "values": [{"measurement": "H-bond distance to MASP-2 ASP 627 atom OD1", "setting": "Table A1 (H-Bonds), ASP 627 OD1", "result": 3.32}, {"measurement": "H-bond distance to MASP-2 GLY 656 atom O", "setting": "Table A1 (H-Bonds)", "result": 2.34}, {"measurement": "H-bond distance to MASP-2 SER 628 atom O", "setting": "Table A1 (H-Bonds)", "result": 2.74}, {"measurement": "H-bond distance to MASP-2 SER 657 atom O", "setting": "Table A1 (H-Bonds)", "result": 2.65}, {"measurement": "van der Waals contact distance, MASP-2 HIS 483 atom NE2", "setting": "Table A2-1", "result": 3.56}, {"measurement": "van der Waals contact distance, MASP-2 PHE 529 atom CZ", "setting": "Table A2-3", "result": 3.57}, {"measurement": "van der Waals contact distance, SER 654 C to compound atom", "setting": "Table A2-11", "result": 3.36}, {"measurement": "van der Waals contact distance, TRP 655 C to compound atom", "setting": "Table A2-12", "result": 3.57}]}
{"smiles": "C[C@H](NC(=O)[C@H]1C[C@H](Cc2ccccc2)CN1)C(=O)NCc1ccc(C(=N)N)cc1", "note": "[compound 1306, (2R,4S)-4-Benzyl-N—((S)-1-((4-carbamimidoylbenzyl)amino)-1-oxopropan-2-yl)pyrrolidine-2-carboxamide]", "values": [{"measurement": "H-bond distance to MASP-2 ASP 627 atom OD2", "setting": "Table A1 (H-Bonds), ASP 627 OD2", "result": 2.6}, {"measurement": "H-bond distance to MASP-2 GLY 656 atom N", "setting": "Table A1 (H-Bonds)", "result": 3.05}, {"measurement": "H-bond distance to MASP-2 GLY 656 atom O", "setting": "Table A1 (H-Bonds)", "result": 2.69}, {"measurement": "H-bond distance to MASP-2 SER 628 atom O", "setting": "Table A1 (H-Bonds)", "result": 2.24}, {"measurement": "H-bond distance to MASP-2 SER 657 atom O", "setting": "Table A1 (H-Bonds)", "result": 2.87}, {"measurement": "van der Waals contact distance, MASP-2 HIS 483 atom CD2", "setting": "Table A2-1", "result": 3.47}, {"measurement": "van der Waals contact distance, MASP-2 HIS 483 atom NE2", "setting": "Table A2-1", "result": 3.32}, {"measurement": "van der Waals contact distance, MASP-2 PHE 529 atom CZ", "setting": "Table A2-3", "result": 3.63}, {"measurement": "van der Waals contact distance, MASP-2 TYR 607 atom CD1", "setting": "Table A2-4", "result": 3.85}, {"measurement": "van der Waals contact distance, MASP-2 amino acid atom to compound atom", "setting": "[1]", "result": 3.76}, {"measurement": "van der Waals contact distance GLY 656 atom C", "setting": "Table A2-13, MASP-2 GLY 656 C", "result": 3.54}, {"measurement": "van der Waals contact distance GLY 656 atom CA", "setting": "Table A2-13, MASP-2 GLY 656 CA", "result": 3.61}]}
